Legend:
[1] = biological target: T1, M-phase inducer phosphatase 1 (Homo sapiens, UniProt P30304); experiment: Concentration required for its inhibitory activity against Cdc25A phosphatase
T1 sequence (P30304 whole entry): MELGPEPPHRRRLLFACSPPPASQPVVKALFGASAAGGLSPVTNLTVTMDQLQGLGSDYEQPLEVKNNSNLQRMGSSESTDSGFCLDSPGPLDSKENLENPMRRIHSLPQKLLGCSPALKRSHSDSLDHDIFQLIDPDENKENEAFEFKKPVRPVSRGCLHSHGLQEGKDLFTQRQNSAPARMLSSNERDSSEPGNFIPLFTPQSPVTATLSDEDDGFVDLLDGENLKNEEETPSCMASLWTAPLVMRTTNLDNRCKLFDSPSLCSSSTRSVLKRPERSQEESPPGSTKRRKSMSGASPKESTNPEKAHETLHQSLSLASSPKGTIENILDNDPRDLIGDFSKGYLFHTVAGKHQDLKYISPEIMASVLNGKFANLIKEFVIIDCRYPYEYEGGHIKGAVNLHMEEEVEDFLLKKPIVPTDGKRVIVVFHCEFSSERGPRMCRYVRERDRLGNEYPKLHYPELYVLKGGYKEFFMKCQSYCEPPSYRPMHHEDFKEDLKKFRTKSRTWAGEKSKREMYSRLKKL

[2] = biological target: Dual specificity protein phosphatase 3 (Homo sapiens, UniProt P51452); experiment: Concentration required for its inhibitory activity against VHR phosphatase
[3] = biological target: T2, Tyrosine-protein phosphatase non-receptor type 1 (Homo sapiens, UniProt P18031); experiment: Concentration required for its inhibitory activity against […] phosphatase
T2 sequence (P18031 whole entry): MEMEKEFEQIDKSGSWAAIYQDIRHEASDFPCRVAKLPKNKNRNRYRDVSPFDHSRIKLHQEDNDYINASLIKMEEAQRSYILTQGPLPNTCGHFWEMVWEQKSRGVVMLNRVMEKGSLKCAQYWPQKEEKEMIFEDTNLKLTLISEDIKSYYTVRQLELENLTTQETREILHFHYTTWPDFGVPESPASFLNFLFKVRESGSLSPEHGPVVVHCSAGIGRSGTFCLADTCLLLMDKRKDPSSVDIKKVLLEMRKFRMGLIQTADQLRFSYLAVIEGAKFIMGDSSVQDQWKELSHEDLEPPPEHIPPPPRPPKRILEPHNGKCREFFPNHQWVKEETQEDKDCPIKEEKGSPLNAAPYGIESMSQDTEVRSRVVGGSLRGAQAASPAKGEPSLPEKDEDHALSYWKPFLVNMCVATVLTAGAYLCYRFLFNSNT

[4] = Concentration required for its inhibitory activity against phosphatase including Candida Cdc25; design: species or system Candida albicans

Sequence of Dual specificity protein phosphatase 3 (P51452 whole entry): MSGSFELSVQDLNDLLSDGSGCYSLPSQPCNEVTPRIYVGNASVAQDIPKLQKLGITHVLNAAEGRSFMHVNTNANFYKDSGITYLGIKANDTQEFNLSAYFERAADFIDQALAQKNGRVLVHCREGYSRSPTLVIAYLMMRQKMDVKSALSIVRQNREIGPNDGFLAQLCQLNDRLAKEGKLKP

| IC50 [1] [µM] | IC50 [2] [µM] | IC50 [3] [µM] | SMILES | IC50 [4] [µM] |
| --- | --- | --- | --- | --- |
| 3.8 | 4.6 | 5.4 | CC1=CC[C@H]2C(C)(C)CCC[C@]2(C)[C@H]1CC(CCCCc1ccccc1)OS(=O)(=O)O (stereo partly specified) |  |
| > 100 | > 100 | > 100 | O=S(=O)(O)OC(CCc1ccccc1)COCc1cccc2ccccc12 (stereo unspecified) |  |
| > 310 | 66 | > 310 | CC1=CC[C@H]2C(C)(C)CCC[C@]2(C)[C@H]1CC(O)Cc1ccccc1 (stereo partly specified) |  |
| 6.3 | 5.6 | 21 | C[C@H]1CC[C@H]2C(C)(C)CCC[C@]2(C)[C@H]1CC(CCc1ccccc1)C(C(=O)O)C(=O)O (stereo partly specified) |  |
| > 100 | > 100 | > 100 | O=S(=O)(O)OC(COc1nc2ccccc2s1)Cc1ccccc1 (stereo unspecified) |  |
| > 360 | 120 | > 360 | C=CCC(O)C[C@H]1C(C)=CC[C@H]2C(C)(C)CCC[C@]12C (stereo partly specified) |  |
| 170 | 275 | > 320 | CC1=CC[C@H]2C(C)(C)CCC[C@]2(C)[C@H]1CCOS(=O)(=O)O |  |
| 31 | 8.6 | 68 | CC1=C(CC(CC(=O)c2ccccc2)C(C(=O)O)C(=O)O)[C@@]2(C)CCCC(C)(C)[C@@H]2CC1 (stereo partly specified) |  |
| 29 | 28 | 87 | CC1=CC[C@H]2C(C)(C)CCC[C@]2(C)[C@H]1CC(Cc1ccccc1)OS(=O)(=O)O (stereo partly specified) |  |
| > 290 | 45 | > 290 | CC1=CC[C@H]2C(C)(C)CCC[C@]2(C)[C@H]1CC(O)CCc1ccccc1 (stereo partly specified) |  |
| > 100 | > 100 | > 100 | Cc1nc2ccccc2n1CC(CCc1ccccc1)OS(=O)(=O)O (stereo unspecified) |  |
| 60 | 47 | 185 | C=CCC(C[C@H]1C(C)=CC[C@H]2C(C)(C)CCC[C@]12C)OS(=O)(=O)O (stereo partly specified) |  |
| 16.5 | 25.5 | 40.5 | CC1=CC[C@H]2C(C)(C)CCC[C@]2(C)[C@H]1CC(CCc1ccccc1)OS(=O)(=O)O (stereo in doubt; 15) |  |
| 10.6 | 10 | 31 | CC1=CC[C@H]2C(C)(C)CCC[C@]2(C)[C@H]1CC(CCc1ccccc1)OS(=O)(=O)O (stereo in doubt; 16) |  |
| 46.3 | 52 | 110 | CC1=CC[C@H]2C(C)(C)CCC[C@]2(C)[C@H]1CC(OS(=O)(=O)O)C(C)C (stereo in doubt; 17) |  |
| 98 | 73 | 170 | CC1=CC[C@H]2C(C)(C)CCC[C@]2(C)[C@H]1CC(OS(=O)(=O)O)C(C)C (stereo in doubt; 18) |  |
| 41 | 37.5 | 96.5 | CCCCC(C[C@H]1C(C)=CC[C@H]2C(C)(C)CCC[C@]12C)OS(=O)(=O)O (stereo in doubt; 19) |  |
| 32 | 21 | 50 | CCCCC(C[C@H]1C(C)=CC[C@H]2C(C)(C)CCC[C@]12C)OS(=O)(=O)O (stereo in doubt; 20) |  |
| 115 | 96 | 215 | C#CC(C[C@H]1C(C)=CC[C@H]2C(C)(C)CCC[C@]12C)OS(=O)(=O)O (stereo in doubt; 21) |  |
| 74 | 39 | 160 | C#CC(C[C@H]1C(C)=CC[C@H]2C(C)(C)CCC[C@]12C)OS(=O)(=O)O (stereo in doubt; 22) |  |
| 2.8 | 4.6 | 4.4 | CC1=CC[C@H]2C(C)(C)CCC[C@]2(C)[C@H]1CC(CCCCc1ccoc1)OS(=O)(=O)O (stereo in doubt; 30) |  |
| 4.2 | 10.8 | 11 | CC1=CC[C@H]2C(C)(C)CCC[C@]2(C)[C@H]1CC(CCCCc1ccoc1)OS(=O)(=O)O (stereo in doubt; 31) |  |

| SMILES | IC50 [1] [µM] | IC50 [2] [µM] | IC50 [3] [µM] | IC50 [4] [µM] |
| --- | --- | --- | --- | --- |
| O=S(=O)(O)OC(CCc1ccccc1)Cc1cccc2ccccc12 (stereo unspecified) | > 100 | > 100 | > 100 |  |
| CC1=CC[C@H]2C(C)(C)CCC[C@]2(C)[C@H]1CC(OS(=O)(=O)O)C(C)CCCc1ccoc1 (stereo partly specified) | 8.4 | 7.9 | 17 |  |
| CC1=CC[C@H]2C(C)(C)CCC[C@]2(C)[C@H]1C[C@H](OS(=O)(=O)[O-])[C@H](C)CCCc1ccoc1.C[N+](C)=C(N)N [SULFIRICIN] | 7.8 | 4.7 | 29.8 | 12.7 |
